Results on three molecules are retold here after patent US20240190854A1, “PYRIMIDINE OR PYRIDINE DERIVATIVES USEFUL AS HCN2 MODULATORS” (King's College London, priority 2021, published 2024).

A word on the ED50: it is the midpoint of the dose-response relation. The term IC50 denotes the concentration needed to halve the response being measured. By efflux ratio is commonly meant a quotient of directional permeabilities that is used to spot active efflux.

“Also recorded” adds a separate entry of the source. Counter-ions that a name gives are not always drawn.

In series [1] the test system is mouse neuropathic pain model (partial sciatic nerve ligation). Kind of series: Mouse neuropathic pain model, paw pressure (Randall Sellito test). It is filed as in vivo.
The test system is the same in series [2]. Kind of series: Mouse neuropathic pain model (PSNL), von Frey filament. The conditions noted are these: for Mechanical analgesia (von Frey): day 5 after PSNL. It is filed as in vivo. The method, then: The model used was analogous to the model described in Seltzer Z, Dubner R, & Shir Y (1990), A novel behavioural model of neuropathic pain disorders produced in rats by partial sciatic nerve injury, Pain 43: 205-218). […] Sci Transl Med 9: eaam6072.
The mechanical pain threshold was measured by manual von Frey filament applied to hind paw on the operated side, using the “up-down” method.
Mechanical pain threshold was measured as in Example 133 1 day before and 8 days after partial sciatic nerve ligation (PSNL) neuropathic pain induction. The test compound was administered at a low dose of 0.2 mg/kg every two hours with a control arm of vehicle only injections.
Mechanical pain threshold was measured as in Example 133 1 day before and 5-8 days after partial sciatic nerve ligation (PSNL) neuropathic pain induction. The test compound was administered at a dose of 0.5 mg/kg twice-daily at 8 hour intervals with a control arm of vehicle only injections, and mechanical pain threshold was measured 4 hours after the first injection.

Series [3] deals with HCN2 (Homo sapiens (Human), UniProt Q9UL51). The experiment in a line: HCN2 current assay using the Sophion Qube. As to conditions: Sophion Qube protocol; read-out: SQ HCN2 IC50. It is filed as cell-based. The method, then: (§1) Example 126B, Using the Sophion Qube
(§2) Solutions for recording HCN currents were:
(§3) This voltage protocol was applied every 20 seconds for the duration of the experiment. Both the vehicle (0.3% DMSO) and full block (3 mM CsCl) addition periods were applied for 10 experimental sweeps each.
(§4) The current amplitudes were measured by subtracting metric A from metric B (see FIG. 2) with inhibition calculated by normalising to the vehicle addition (0.3% DMSO) and full inhibition by 3 mM CsCl in the same well.
(§5) In total, compound was applied to the well for 600 seconds.

In series [4] the target is hERG channel (Homo sapiens (Human), UniProt Q12809). The experiment in a line: hERG assay using Sophion Qube. It is filed as cell-based. As to conditions: Sophion Qube protocol; read-out: SQ hERG IC50. The method, then: Example 127B, Using Sophion Qube
Solutions for recording hERG currents were:
This voltage protocol was applied every 15 seconds for the duration of the experiment. Both the vehicle and 1st compound addition periods were applied for 10 sweeps. The 2nd compound addition period was applied for 20 sweeps. The compound concentration was added to the test well twice to assure complete exchange of the external buffer with the test compound. In total, compound was applied to the well for 450 seconds.

Series [5] has as its target HCN4 (Homo sapiens (Human), UniProt Q9Y3Q4). Kind of series: HCN4 current assay using the Sophion Qube. It is filed as cell-based. The conditions noted are these: Sophion Qube protocol; read-out: SQ HCN4 IC50. The method, then:
as §1, §2, §3, §4, §5

For series [6], the target named is MDR1 (P-glycoprotein) (Homo sapiens (Human), UniProt P08183). The experiment in a line: in vitro. As to conditions: dog, MDCK-MDR1, pH 7.4.
Description: Test compounds were added (10 μM, 0.1% DMSO final, n=2) to donor compartments of the Transwell plate assembly in assay buffer (Hanks balanced salt solution supplemented with 25 mM HEPES, adjusted to pH 7.4) for both apical to basolateral (A>B) and basolateral to apical (B>A) measurements. A parallel series of incubations were performed in the presence of the transporter inhibitor elacridar (5 μM) which was added to both compartments in the transwell plate. Incubations were performed at 37° C., with samples removed from both donor and acceptor chambers at T=0 and 1 hour for recovery assessment and compound analysed by mass spectrometry (LC-MS/MS), including an analytical internal standard.
Apparent permeability (Papp) values were determined from the relationship:
Where V is the volume of each Transwell compartment (apical 125 μL, basolateral 600 μL), and concentrations are the relative MS responses for compound (normalized to internal standard) in the donor chamber before incubation and acceptor chamber at the end of the incubation.
Area=area of cells exposed for drug transfer (0.33 cm2).
Efflux ratios (Papp B>A/Papp A>B) were calculated for each compound from the mean Papp values in each direction. […] The efflux ratios were also calculated in the same way from the runs carried out in the presence of the inhibitor. The net flux is the ratio of the efflux in the absence of inhibitor to that in the presence of inhibitor.
Lucifer Yellow (LY) was added to the apical buffer in all wells to assess viability of the cell layer.
Compound recovery from the wells was determined from MS responses (normalized to internal standard) in donor and acceptor chambers at the end of incubation compared to response in the donor chamber pre-incubation.
For series [7], the target named is hNav1.5 (Homo sapiens (Human), UniProt Q14524).
Description: The cells were held at −100 mV followed by a depolarising step to −10 mV for 100 milliseconds before stepping back to −100 mV, this represents 1 experimental sweep.
For tonic block (0.1 Hz), the peak currents evoked by the step to −10 mV were measured for the analysis of the percentage inhibition by test compounds. For use-dependent block (4 Hz), the peak current evoked at the 20th depolarising step to −10 mV was measured for the analysis of the percentage inhibition by test compounds. Peak currents were first normalised to the vehicle addition (0.3% DMSO) in the same well.
Series [8] deals with HCN1 (Homo sapiens (Human), UniProt O60741). Kind of series: HCN1 current assay using the Sophion Qube. The conditions noted are these: Sophion Qube protocol; read-out: SQ HCN1 IC50. It is filed as cell-based. How it is done: as §1, §2, §3, §4, §5
The test system of series [9] is guinea pigs, noise-exposure tinnitus. The experiment in a line: GPIAS test, noise-exposure tinnitus model. It is filed as in vivo, guinea pig. The source says:
(§6) Tinnitus in guinea pigs was monitored using the gap induced inhibition of the acoustic startle (GPIAS) test (see FIG. 5). GPIAS is reduced when tinnitus was present; see Berger, J. I. et al. Effects of the cannabinoid CB1 agonist ACEA on salicylate ototoxicity, hyperacusis and tinnitus in guinea pigs. Hearing research, (2017), and Coomber, B. et al. Neural changes accompanying tinnitus following unilateral acoustic trauma in the guinea pig. Eur J Neurosci 40, 2427-2441, (2014).
(§7) In FIG. 5, sound stimulus (above) and corresponding pinna reflex (below) are shown in freely moving guinea pigs. Stimuli with no gap and gap are presented in a randomised order. Traces contaminated by movement (the upper trace in “no gap”) were removed before analysis.
The noise-exposure model is more clinically relevant than the salicylate model, as it parallels a common cause of tinnitus in humans. A second important point is that it is long-term, while tinnitus induced by salicylate is rapidly reversed following salicylate exposure.

The subject of series [10] is mice, normal hearing. It is filed as in vivo. As to conditions: adult mice; Example 29 at 20 mg/kg ip.
Series [11] relates to Black6 mice. As to conditions: mouse, in vivo; cited from earlier work.
Series [12] in a line: CNS penetration: plasma, brain and auditory nerve levels. It is filed as in vivo. As to conditions: guinea pig, auditory nerve, other: injection; 30 min after injection, n=2, preliminary; read-out: Ratio of total concentrations auditory nerve : plasma. How it is done:
Ivabradine in guinea pig plasma, brain (somatosensory cortex) and auditory nerve were assayed at 30 min after injection, the time used in Example 130.

The test system of series [13] is guinea pigs, salicylate-induced tinnitus. Kind of series: GPIAS test, short-term salicylate tinnitus model. It is filed as in vivo, guinea pig. As to conditions: salicylate 350 mg/kg i.p.; ivabradine 5 mg/kg s.c.
Source text: as §6, §7
Tinnitus was induced within 1-2 hours in humans by high doses of salicylate. A similar short-term tinnitus model was implemented in guinea pigs by i.p. injection of salicylate. In all animals, salicylate caused behavioural inhibition of GPIAS (see bar 2 in FIG. 6).
Salicylate (350 mg/kg, i.p.) impairs behavioural gap detection 2 h after salicylate administration (see bar 2 in of FIG. 6). Gap detection was restored by blocking HCN channels with ivabradine (5 mg/kg, s.c.).

Chain of hERG channel (Q12809 whole entry): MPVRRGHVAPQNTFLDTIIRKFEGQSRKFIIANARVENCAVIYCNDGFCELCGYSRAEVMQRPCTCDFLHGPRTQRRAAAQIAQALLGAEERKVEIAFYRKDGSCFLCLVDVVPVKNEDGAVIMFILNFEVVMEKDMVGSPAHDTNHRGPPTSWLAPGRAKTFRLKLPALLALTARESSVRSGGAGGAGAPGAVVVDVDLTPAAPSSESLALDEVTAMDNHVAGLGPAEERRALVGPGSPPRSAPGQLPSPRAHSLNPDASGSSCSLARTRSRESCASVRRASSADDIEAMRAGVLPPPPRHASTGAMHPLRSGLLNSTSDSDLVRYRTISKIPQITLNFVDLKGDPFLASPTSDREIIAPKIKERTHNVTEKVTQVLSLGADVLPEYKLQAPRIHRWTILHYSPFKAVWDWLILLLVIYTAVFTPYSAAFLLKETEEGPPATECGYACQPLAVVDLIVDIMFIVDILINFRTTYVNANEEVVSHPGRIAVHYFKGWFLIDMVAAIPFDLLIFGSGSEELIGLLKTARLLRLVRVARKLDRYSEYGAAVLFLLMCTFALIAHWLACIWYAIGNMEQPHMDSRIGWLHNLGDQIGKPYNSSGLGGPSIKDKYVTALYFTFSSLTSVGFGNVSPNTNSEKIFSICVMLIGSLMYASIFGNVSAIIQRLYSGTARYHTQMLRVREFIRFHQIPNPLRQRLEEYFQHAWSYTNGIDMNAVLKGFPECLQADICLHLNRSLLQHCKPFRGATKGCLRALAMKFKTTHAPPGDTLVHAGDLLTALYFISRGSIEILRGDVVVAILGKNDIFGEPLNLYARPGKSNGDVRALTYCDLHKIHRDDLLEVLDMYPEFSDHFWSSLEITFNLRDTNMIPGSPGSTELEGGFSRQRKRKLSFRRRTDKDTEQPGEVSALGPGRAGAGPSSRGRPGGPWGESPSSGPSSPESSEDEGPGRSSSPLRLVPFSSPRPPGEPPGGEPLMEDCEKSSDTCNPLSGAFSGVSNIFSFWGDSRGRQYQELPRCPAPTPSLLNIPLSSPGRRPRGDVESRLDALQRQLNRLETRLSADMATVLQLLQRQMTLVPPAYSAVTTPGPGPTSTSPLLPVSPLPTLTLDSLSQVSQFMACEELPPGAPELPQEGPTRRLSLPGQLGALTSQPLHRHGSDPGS
Chain of hNav1.5 (Q14524 whole entry): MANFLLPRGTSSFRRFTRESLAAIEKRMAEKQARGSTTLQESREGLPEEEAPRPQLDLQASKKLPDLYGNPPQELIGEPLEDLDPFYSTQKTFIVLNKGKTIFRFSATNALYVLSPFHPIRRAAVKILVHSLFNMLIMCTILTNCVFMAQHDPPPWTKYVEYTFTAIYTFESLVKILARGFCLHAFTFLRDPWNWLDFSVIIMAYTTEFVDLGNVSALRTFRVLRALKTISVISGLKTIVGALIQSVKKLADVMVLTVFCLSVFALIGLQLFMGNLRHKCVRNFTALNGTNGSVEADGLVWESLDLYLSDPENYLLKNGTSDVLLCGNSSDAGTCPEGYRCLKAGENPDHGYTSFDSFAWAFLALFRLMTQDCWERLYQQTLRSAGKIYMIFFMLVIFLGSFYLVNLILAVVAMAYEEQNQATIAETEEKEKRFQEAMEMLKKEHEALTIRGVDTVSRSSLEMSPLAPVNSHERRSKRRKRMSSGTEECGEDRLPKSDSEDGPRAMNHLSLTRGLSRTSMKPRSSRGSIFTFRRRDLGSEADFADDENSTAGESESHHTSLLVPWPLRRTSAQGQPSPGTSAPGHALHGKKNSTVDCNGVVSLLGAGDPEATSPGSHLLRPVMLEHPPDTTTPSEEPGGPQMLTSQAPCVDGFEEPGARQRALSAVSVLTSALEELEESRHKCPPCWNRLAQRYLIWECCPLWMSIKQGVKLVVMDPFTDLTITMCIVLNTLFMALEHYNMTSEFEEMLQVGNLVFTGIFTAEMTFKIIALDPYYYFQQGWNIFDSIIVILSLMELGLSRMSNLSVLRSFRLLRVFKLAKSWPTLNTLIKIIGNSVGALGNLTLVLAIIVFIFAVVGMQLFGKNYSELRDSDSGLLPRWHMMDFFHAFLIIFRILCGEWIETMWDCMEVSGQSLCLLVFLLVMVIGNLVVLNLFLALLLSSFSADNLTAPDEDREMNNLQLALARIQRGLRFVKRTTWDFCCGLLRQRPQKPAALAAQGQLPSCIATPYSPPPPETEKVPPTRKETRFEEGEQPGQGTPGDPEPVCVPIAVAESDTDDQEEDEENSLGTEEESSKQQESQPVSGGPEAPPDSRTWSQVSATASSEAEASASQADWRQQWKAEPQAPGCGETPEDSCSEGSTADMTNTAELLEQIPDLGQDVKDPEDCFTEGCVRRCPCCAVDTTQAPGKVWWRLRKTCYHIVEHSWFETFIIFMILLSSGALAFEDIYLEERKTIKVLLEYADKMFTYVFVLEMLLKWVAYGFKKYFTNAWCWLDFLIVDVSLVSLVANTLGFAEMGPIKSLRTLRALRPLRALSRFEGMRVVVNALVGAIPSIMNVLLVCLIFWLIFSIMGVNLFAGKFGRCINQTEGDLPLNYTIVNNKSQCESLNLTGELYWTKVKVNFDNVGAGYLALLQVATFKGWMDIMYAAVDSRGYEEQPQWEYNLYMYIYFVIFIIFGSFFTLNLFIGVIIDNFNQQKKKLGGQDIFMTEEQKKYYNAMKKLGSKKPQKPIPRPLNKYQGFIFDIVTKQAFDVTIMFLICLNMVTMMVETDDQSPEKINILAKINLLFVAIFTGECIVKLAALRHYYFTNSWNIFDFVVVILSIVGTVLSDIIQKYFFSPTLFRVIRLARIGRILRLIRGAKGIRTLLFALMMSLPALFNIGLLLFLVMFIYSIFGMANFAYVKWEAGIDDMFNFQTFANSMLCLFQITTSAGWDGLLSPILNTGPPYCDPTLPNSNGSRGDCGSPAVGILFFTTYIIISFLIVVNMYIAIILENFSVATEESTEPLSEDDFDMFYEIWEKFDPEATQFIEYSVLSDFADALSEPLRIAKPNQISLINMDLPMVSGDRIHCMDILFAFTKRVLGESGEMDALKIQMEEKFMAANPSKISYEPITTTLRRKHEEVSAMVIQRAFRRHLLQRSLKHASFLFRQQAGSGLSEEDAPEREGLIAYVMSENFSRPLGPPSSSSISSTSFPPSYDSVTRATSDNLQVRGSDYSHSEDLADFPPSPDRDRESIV
Chain of HCN4 (Q9Y3Q4 whole entry, species assumed): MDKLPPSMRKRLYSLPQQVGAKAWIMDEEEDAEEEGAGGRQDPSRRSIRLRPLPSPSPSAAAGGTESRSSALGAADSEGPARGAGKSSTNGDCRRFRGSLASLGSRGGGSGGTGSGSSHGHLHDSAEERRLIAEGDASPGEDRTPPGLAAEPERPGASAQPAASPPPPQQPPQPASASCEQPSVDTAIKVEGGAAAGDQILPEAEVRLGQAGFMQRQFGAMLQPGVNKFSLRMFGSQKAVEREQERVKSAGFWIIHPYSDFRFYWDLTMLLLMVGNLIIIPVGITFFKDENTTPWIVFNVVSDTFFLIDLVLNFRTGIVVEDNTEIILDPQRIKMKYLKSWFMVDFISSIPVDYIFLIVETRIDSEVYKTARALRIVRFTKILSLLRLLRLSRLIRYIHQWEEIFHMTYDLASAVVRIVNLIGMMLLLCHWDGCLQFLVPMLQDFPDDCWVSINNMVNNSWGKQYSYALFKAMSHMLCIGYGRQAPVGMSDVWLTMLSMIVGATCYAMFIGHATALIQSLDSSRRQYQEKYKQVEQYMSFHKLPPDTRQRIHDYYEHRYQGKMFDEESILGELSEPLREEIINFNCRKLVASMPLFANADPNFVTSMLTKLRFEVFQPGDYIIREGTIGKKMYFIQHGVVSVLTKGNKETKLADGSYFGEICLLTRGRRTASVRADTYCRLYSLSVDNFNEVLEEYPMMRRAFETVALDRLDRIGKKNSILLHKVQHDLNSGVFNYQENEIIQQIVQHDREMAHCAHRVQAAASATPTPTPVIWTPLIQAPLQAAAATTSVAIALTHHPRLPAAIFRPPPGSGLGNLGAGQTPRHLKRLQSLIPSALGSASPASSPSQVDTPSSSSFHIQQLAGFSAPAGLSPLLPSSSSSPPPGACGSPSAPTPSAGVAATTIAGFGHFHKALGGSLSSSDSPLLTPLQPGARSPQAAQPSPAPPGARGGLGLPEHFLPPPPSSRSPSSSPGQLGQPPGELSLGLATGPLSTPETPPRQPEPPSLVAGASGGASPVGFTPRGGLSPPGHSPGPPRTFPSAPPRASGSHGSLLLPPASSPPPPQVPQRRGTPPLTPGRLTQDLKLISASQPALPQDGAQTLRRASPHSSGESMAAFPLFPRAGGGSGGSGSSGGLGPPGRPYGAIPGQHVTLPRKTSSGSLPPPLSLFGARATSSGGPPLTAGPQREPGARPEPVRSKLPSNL

Turning to `CS(=O)(=O)c1ccc(F)c(C[C@H](N)c2ccccc2-c2noc3ccccc23)n1` [Example 5, (S)-1-[2-(Benzo[d]isoxazol-3-yl)phenyl]-2-[3-fluoro-6-(methylsulfonyl)pyridine-2-yl]ethan-1-amine hydrochloride], the “Analgesia, paw pressure (Randall Sellito)” value is given as “partial analgesia” in series [1] (0.1 mg/kg i.p.) and “full analgesia” in series [1] (0.5 mg/kg i.p.). Moreover, the results for the “Mechanical analgesia (von Frey)” value in series [2] (0.1 mg/kg i.p.) and in [2] (0.5 mg/kg i.p.) were “partial analgesia” and “full analgesia”, respectively. Besides, in series [2] (0.2 mg/kg every two hours, first dose), the “Mechanical analgesia (von Frey), first dose” value is on record as “only partial analgesia”. Besides, in series [2] (0.2 mg/kg every two hours, subsequent doses), the “Mechanical analgesia (von Frey), subsequent doses” value is reported as “increase in analgesia towards full analgesia”. The “Mechanical analgesia (von Frey), successive doses over 4 days” value in [2] (0.5 mg/kg twice-daily at 8 hour intervals, 4 days) was “full and sustained analgesia”. The “Mechanical analgesia (von Frey), 4 hours after first injection” value in series [2] (0.5 mg/kg twice-daily at 8 hour intervals, first injection) was “little analgesia”. The ED50 in [2] (Mus musculus, ip, maximal analgesia, n=3-4 mice, read-out: Analgesic ED50) worked out at 0.17 mg/kg.
Turning to `CS(=O)(=O)c1ccc(F)c(C[C@H](N)c2ccccc2-c2noc3c(F)cccc23)n1` [Example 26, (S)-1-[2-(7-Fluorobenzo[d]isoxazol-3-yl)phenyl]-2-(3-fluoro-6-methylsulfonylpyridin-2-yl)ethan-1-amine hydrochloride], the concentration for half-maximal inhibition (IC50) in series [3] is 1.8 µM; in [4], 15.1 µM; in series [5], more than 30 µM; in series [7], 19.2 µM; in series [8], 25.7 µM. Besides, in [6], the efflux ratio at 1 h, 10 μM stood at 4.2.
With `COc1cc2c(cc1OC)CC(=O)N(CCCN(C)C[C@H]1Cc3cc(OC)c(OC)cc31)CC2` [ivabradine, Ivabradine], the “Effect on GPIAS in noise-exposed guinea pigs showing no behavioural tinnitus” value in [9] (control experiments, n=3) is listed as “without effect on GPIAS; also recorded: without effect on gap detection”. Besides, the “Effect on reduced GPIAS after noise exposure” value in series [9] (guinea pigs with impaired GPIAS, 5 mg/kg s.c.) was “rapidly and completely reversed; also recorded: fully restores GPIAS”. The “Effect on ABR threshold or latency” value in series [10] is “no significant difference”. Moreover, the “Therapeutic window between analgesia and bradycardia” value in [11] was “little therapeutic window”. Besides, the Kp at 30 min in [12] is 0.57. Also, in [13], the “Effect on GPIAS (behavioural gap detection)” value is on record as “reversed GPIAS; also recorded: restored”.
